{"source": "patent US8404859B2", "about": "“Thiazole and thiophene compounds” (Hoffmann-La Roche Inc., priority 2011, dated 2013)", "key": {"[1]": {"target": "sLFA-1/ICAM-1 (Homo sapiens, UniProt P05107+P20701, DEL701-769)", "sequence (P20701 26-1090 limits assumed, stated change not applied)": "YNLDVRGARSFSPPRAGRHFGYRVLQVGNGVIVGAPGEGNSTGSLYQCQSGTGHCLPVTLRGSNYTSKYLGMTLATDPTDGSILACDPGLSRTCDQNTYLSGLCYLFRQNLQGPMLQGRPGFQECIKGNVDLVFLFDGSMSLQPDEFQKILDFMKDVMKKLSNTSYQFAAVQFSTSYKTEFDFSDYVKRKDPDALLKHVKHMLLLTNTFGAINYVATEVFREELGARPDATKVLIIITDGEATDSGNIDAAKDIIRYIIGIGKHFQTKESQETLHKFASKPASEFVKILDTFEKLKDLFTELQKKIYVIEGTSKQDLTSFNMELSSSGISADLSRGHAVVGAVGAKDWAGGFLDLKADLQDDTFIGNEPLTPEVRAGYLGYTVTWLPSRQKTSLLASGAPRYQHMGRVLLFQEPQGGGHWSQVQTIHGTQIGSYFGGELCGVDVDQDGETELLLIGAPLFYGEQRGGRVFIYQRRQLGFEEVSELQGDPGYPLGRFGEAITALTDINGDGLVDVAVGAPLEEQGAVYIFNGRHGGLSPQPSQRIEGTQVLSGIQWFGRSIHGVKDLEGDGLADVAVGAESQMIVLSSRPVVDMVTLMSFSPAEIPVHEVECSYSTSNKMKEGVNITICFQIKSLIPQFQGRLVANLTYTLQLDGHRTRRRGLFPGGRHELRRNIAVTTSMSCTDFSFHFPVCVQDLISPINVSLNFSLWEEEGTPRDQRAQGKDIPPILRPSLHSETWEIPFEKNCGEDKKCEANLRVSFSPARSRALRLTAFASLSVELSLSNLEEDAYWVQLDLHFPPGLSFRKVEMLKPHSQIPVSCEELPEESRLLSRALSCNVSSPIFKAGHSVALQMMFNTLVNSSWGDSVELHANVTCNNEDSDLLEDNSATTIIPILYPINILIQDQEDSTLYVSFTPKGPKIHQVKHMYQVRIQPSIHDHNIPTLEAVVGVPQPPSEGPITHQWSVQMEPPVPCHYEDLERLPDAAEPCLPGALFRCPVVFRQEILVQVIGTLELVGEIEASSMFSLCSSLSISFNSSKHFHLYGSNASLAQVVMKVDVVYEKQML", "sequence (P05107 23-700 limits assumed, stated change not applied)": "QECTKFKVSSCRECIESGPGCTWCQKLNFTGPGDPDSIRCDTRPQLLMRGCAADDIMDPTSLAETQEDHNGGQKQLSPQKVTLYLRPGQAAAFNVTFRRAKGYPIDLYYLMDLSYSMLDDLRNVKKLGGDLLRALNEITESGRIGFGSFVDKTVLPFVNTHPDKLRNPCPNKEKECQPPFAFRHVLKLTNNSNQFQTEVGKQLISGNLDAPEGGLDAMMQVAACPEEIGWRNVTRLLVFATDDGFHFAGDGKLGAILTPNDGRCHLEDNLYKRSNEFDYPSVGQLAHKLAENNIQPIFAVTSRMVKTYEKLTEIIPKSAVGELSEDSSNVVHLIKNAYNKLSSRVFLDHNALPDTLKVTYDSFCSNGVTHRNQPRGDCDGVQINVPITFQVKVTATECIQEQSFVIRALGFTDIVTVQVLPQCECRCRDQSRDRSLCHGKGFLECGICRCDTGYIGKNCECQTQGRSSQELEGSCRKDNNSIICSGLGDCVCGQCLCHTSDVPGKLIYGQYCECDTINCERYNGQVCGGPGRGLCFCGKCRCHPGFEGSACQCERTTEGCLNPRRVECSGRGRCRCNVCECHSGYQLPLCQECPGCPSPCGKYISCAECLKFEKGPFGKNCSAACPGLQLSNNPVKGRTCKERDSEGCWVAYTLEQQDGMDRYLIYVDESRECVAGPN", "assay": "sLFA-1/ICAM-1 ELISA", "details": "sLFA-1 coated plates, 5dICAM-Fc binding, read-out: LFA/ICAM (IC50)", "procedure": "(§1) sLFA-1/ICAM-1 ELISA and Mac-1/ICAM-1 ELISA\n(§2) Plates were coated with either 50 μl/well of 2.0 ug/ml solution of sLFA-1 or Mac-1 receptor in divalent cation buffer (1 mM MnCI2, 0.14M NaCl, 20 mM HEPES pH 7.2) at 4° C. overnight. Two hundred fifty μl of blocking buffer (1% BSA in divalent cation buffer) was added to each well 1 hour at 37° C. Plates were washed 3 times with wash buffer (TBS/0.05% Tween-20/1 mM MnCl2). The compound to be tested was solubilized in DMSO. A series of 1:3 dilutions were performed to achieve a concentration range of 0.45 nM-3 uM. Fifty μl of binding buffer (0.5% BSA in divalent cation buffer)/1% DMSO and 50 μl of the solutions to be tested were added to the appropriate wells and incubated for 1 hour. Fifty μl of 5dICAM-Fc (27 ng/ml) was added to the appropriate wells and 50 μl binding buffer was added to non-specific binding wells and incubated for 2 hours and washed. One hundred μl of 1:4000 HRP-goat anti-huIgG was added to each well and incubated for 1 hour and washed. One hundred μl of 1:1 TMB solution was added to each well and developed for 20 min at room temperature. Color development was stopped by adding 100 μl H3PO4 to each well. Absorbance was measured at 450 nm."}, "[2]": {"target": "Mac-1/ICAM-1 (Homo sapiens, UniProt P05107+P11215)", "sequence (P05107 23-769, other chains not shown)": "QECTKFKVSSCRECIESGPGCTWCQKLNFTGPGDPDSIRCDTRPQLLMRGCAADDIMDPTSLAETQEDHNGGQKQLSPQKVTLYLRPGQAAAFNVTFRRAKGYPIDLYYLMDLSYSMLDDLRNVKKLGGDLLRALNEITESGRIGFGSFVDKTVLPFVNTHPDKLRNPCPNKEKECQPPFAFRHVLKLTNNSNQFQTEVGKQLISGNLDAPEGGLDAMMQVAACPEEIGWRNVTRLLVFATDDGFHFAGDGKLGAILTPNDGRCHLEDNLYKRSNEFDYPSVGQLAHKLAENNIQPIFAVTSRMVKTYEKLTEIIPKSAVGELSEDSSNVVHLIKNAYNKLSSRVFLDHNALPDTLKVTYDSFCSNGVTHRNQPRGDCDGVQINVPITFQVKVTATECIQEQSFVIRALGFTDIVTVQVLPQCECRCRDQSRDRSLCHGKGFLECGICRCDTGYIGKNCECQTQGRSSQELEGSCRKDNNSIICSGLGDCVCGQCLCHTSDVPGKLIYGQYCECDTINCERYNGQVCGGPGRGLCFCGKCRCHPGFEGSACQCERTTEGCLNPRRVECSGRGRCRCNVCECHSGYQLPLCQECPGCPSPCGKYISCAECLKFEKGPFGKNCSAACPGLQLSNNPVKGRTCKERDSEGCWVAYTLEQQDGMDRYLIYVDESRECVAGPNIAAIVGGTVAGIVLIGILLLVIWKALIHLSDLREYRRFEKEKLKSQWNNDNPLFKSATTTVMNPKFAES", "assay": "Mac-1/ICAM-1 ELISA", "details": "Mac-1 receptor coated plates, 5dICAM-Fc binding", "procedure": "as §1, §2"}}}
{"smiles": "Cc1nc(NCCCc2cccc3[nH]ncc23)sc1C(=O)N[C@@H](CNC(=O)c1cccs1)C(=O)O", "note": "[Example 17, (S)-2-([2-[3-(1H-Indazol-4-yl)-propylamino]-4-methyl-thiazole-5-carbonyl]-amino)-3-[(thiophene-2-carbonyl)-amino]-propionic acid]", "values": [{"measurement": "IC50", "setting": "[1]", "result": 223, "unit": "nM"}, {"measurement": "IC50", "setting": "[2]", "result": 294, "unit": "nM"}]}
{"smiles": "Cc1cc(C(=O)NCc2cccc(O)c2)sc1C(=O)N[C@@H](CNC(=O)c1cccs1)C(=O)O", "note": "[Example 32, (S)-2-{[5-(3-hydroxy-benzylcarbamoyl)-3-methyl-thiophen-2-carbonyl]-amino}-3-[(thiophene-2-carbonyl)-amino]-propionic acid]", "values": [{"measurement": "IC50", "setting": "[1]", "result": 19, "unit": "nM"}, {"measurement": "IC50", "setting": "[2]", "result": 94, "unit": "nM"}]}
{"smiles": "CC(C)(C)c1cc(C(=O)NCc2cccc(O)c2)sc1C(=O)N[C@@H](CNC(=O)c1cccs1)C(=O)O", "note": "[Example 33]", "values": [{"measurement": "IC50", "setting": "[1]", "result": 149, "unit": "nM"}, {"measurement": "IC50", "setting": "[2]", "result": 300, "unit": "nM"}]}
{"smiles": "Cc1cc(C(=O)NCc2cccc3[nH]ccc23)sc1C(=O)N[C@@H](CNC(=O)c1cccs1)C(=O)O", "note": "[Example 34, (S)-2-({5-[(1H-indol-4-ylmethyl)carbamoyl]-3-methyl-thiophen-2-carbonyl}-amino)-3-[(thiophene-2-carbonyl)-amino]-propionic acid]", "values": [{"measurement": "IC50", "setting": "[1]", "result": 516, "unit": "nM"}, {"measurement": "IC50", "setting": "[2]", "result": "> 3000", "unit": "nM"}]}
{"smiles": "Cc1cc(C(=O)NCc2cccc3c2CC(=O)N3)sc1C(=O)N[C@@H](CNC(=O)c1cccs1)C(=O)O", "note": "[Example 35, (S)-2-({3-methyl-5-[(2-oxo-2,3-dihydro-11′-indol-4-ylmethyl)carbamoyl]-thiophen-2-carbonyl}-amino)-3-[(thiophene-2-carbonyl)-amino]-propionic acid]", "values": [{"measurement": "IC50", "setting": "[1]", "result": 671, "unit": "nM"}, {"measurement": "IC50", "setting": "[2]", "result": "> 3000", "unit": "nM"}]}
{"smiles": "Cc1cc(C(=O)NCc2cccc3[nH]ncc23)sc1C(=O)N[C@@H](CNC(=O)c1cccs1)C(=O)O", "note": "[Example 36, (S)-2-({5-[(1H-indazol-4-ylmethyl)-carbamoyl]-3-methyl-thiophen-2-carbonyl}-amino)-3-[(thiophene-2-carbonyl)-amino]-propionic acid]", "values": [{"measurement": "IC50", "setting": "[1]", "result": 24, "unit": "nM"}, {"measurement": "IC50", "setting": "[2]", "result": 48, "unit": "nM"}]}
{"smiles": "Cc1cc(C(=O)NCc2cccc(O)c2)sc1C(=O)N[C@@H](CNC(=O)c1cc(O)cc(O)c1)C(=O)O", "note": "[Example 38, (S)-3-(3,5-dihydroxy-benzoylamino)-2-{[5-(3-hydroxy-benzylcarbamoyl)-3-methyl-thiophen-2-carbonyl]-amino}-propionic acid]", "values": [{"measurement": "IC50", "setting": "[1]", "result": 2, "unit": "nM"}, {"measurement": "IC50", "setting": "[2]", "result": 7, "unit": "nM"}]}
{"smiles": "Cc1cc(C(=O)NCc2cccc(O)c2)sc1C(=O)N[C@@H](CNC(=O)c1cc(=O)[nH]c(=O)[nH]1)C(=O)O", "note": "[Example 39]", "values": [{"measurement": "IC50", "setting": "[1]", "result": 55, "unit": "nM"}, {"measurement": "IC50", "setting": "[2]", "result": "> 3000", "unit": "nM"}]}
{"smiles": "Cc1cc(C(=O)NCc2cccc(O)c2)sc1C(=O)N[C@@H](CNC(=O)c1cccc(O)c1)C(=O)O", "note": "[Example 40]", "values": [{"measurement": "IC50", "setting": "[1]", "result": 2, "unit": "nM"}, {"measurement": "IC50", "setting": "[2]", "result": 23, "unit": "nM"}]}
{"smiles": "Cc1cc(C(=O)NCc2cccc(O)c2)sc1C(=O)N[C@@H](CNC(=O)c1cnccn1)C(=O)O", "note": "[Example 41]", "values": [{"measurement": "IC50", "setting": "[1]", "result": 21, "unit": "nM"}, {"measurement": "IC50", "setting": "[2]", "result": "> 3000", "unit": "nM"}]}
{"smiles": "Cc1cc(C(=O)NCc2cccc(O)c2)sc1C(=O)N[C@@H](CNC(=O)c1ccc2[nH]cnc2c1)C(=O)O", "note": "[Example 42]", "values": [{"measurement": "IC50", "setting": "[1]", "result": 35, "unit": "nM"}, {"measurement": "IC50", "setting": "[2]", "result": "> 3000", "unit": "nM"}]}
{"smiles": "Cc1cc(C(=O)NCCc2cccc(O)c2)sc1C(=O)N[C@@H](CNC(=O)c1cc(O)cc(O)c1)C(=O)O", "note": "[Example 49, (S)-3-(3,5-dihydroxy-benzoylamino)-2-([5-[2-(3-hydroxy-phenyl)-ethyl-carbamoyl]-3-methyl-thiophen-2-carbonyl]-amino)-propionic acid]", "values": [{"measurement": "IC50", "setting": "[1]", "result": 18, "unit": "nM"}, {"measurement": "IC50", "setting": "[2]", "result": 207, "unit": "nM"}]}
{"smiles": "O=C(NC[C@H](NC(=O)c1sc(C(=O)NCc2cccc3[nH]ccc23)cc1C(F)(F)F)C(=O)O)c1cccs1", "note": "[Example 50, (S)-2-({5-[(1H-Indol-4-ylmethyl)-carbamoyl]-3-trifluoromethyl-thiophene-2-carbonyl}-amino)-3-[(thiophene-2-carbonyl)-amino]-propionic acid]", "values": [{"measurement": "IC50", "setting": "[1]", "result": 344, "unit": "nM"}, {"measurement": "IC50", "setting": "[2]", "result": "> 3000", "unit": "nM"}]}
{"smiles": "O=C1Cc2c(CNC(=O)c3cc(C(F)(F)F)c(C(=O)N[C@@H](CNC(=O)c4cccs4)C(=O)O)s3)cccc2N1", "note": "[Example 51, (S)-2-({5-[(2-oxo-2,3-dihydro-1H-indol-4-ylmethyl)-carbamoyl]-3-trifluoromethyl-thiophene-2-carbonyl}-amino)-3-[(thiophene-2-carbonyl)-amino]-propionic acid]", "values": [{"measurement": "IC50", "setting": "[1]", "result": 164, "unit": "nM"}, {"measurement": "IC50", "setting": "[2]", "result": "> 3000", "unit": "nM"}]}
{"smiles": "O=C(NC[C@H](NC(=O)c1sc(C(=O)NCc2cccc(O)c2)cc1C(F)(F)F)C(=O)O)c1cccs1", "note": "[Example 52, (S)-2-{[5-(3-Hydroxy-benzylcarbamoyl)-3-trifluoromethyl-thiophene-2-carbonyl]-amino}-3-[(thiophene-2-carbonyl)-amino]-propionic acid]", "values": [{"measurement": "IC50", "setting": "[1]", "result": 31, "unit": "nM"}, {"measurement": "IC50", "setting": "[2]", "result": 115, "unit": "nM"}]}
{"smiles": "O=C(NC[C@H](NC(=O)c1sc(C(=O)NCc2cccc(O)c2)cc1Cl)C(=O)O)c1cccs1", "note": "[Example 54, (S)-2-{[3-Chloro-5-(3-hydroxy-benzylcarbamoyl)-thiophene-2-carbonyl]-amino}-3-[(thiophene-2-carbonyl)-amino]-propionic acid]", "values": [{"measurement": "IC50", "setting": "[1]", "result": 7, "unit": "nM"}, {"measurement": "IC50", "setting": "[2]", "result": 62, "unit": "nM"}]}
{"smiles": "O=C(NC[C@H](NC(=O)c1sc(C(=O)NCc2cccc3[nH]ncc23)cc1Cl)C(=O)O)c1cccs1", "note": "[Example 56, (S)-2-({3-Chloro-5-[(1H-indazol-4-ylmethyl)-carbamoyl]-thiophene-2-carbonyl}-amino)-3-[(thiophene-2-carbonyl)-amino]-propionic acid]", "values": [{"measurement": "IC50", "setting": "[1]", "result": 29, "unit": "nM"}, {"measurement": "IC50", "setting": "[2]", "result": 20, "unit": "nM"}]}
{"smiles": "O=C(NC[C@H](NC(=O)c1sc(C(=O)NCc2cccc3[nH]ncc23)cc1C(F)(F)F)C(=O)O)c1cccs1", "note": "[Example 58, (S)-2-({5-[(1H-Indazol-4-ylmethyl)-carbamoyl]-3-trifluoromethyl-thiophene-2-carbonyl}-amino)-3-[(thiophene-2-carbonyl)-amino]-propionic acid]", "values": [{"measurement": "IC50", "setting": "[1]", "result": 41, "unit": "nM"}, {"measurement": "IC50", "setting": "[2]", "result": 55, "unit": "nM"}]}
{"smiles": "CC(C)c1cc(C(=O)NCc2cccc(O)c2)sc1C(=O)N[C@@H](CNC(=O)c1cccs1)C(=O)O", "note": "[Example 59, (S)-2-{[5-(3-Hydroxy-benzylcarbamoyl)-3-isopropyl-thiophene-2-carbonyl]-amino}-3-[(thiophene-2-carbonyl)-amino]-propionic acid]", "values": [{"measurement": "IC50", "setting": "[1]", "result": 29, "unit": "nM"}, {"measurement": "IC50", "setting": "[2]", "result": 46, "unit": "nM"}]}
{"smiles": "CC(C)c1cc(C(=O)NCc2cccc3[nH]ncc23)sc1C(=O)N[C@@H](CNC(=O)c1cccs1)C(=O)O", "note": "[Example 60, (S)-2-([5-[(1H-Indazol-4-ylmethyl)-carbamoyl]-3-isopropyl-thiophene-2-carbonyl]-amino)-3-[(thiophene-2-carbonyl)-amino]-propionic acid]", "values": [{"measurement": "IC50", "setting": "[1]", "result": 49, "unit": "nM"}, {"measurement": "IC50", "setting": "[2]", "result": 17, "unit": "nM"}]}
{"smiles": "CCc1cc(C(=O)NCc2cccc(O)c2)sc1C(=O)N[C@@H](CNC(=O)c1cccs1)C(=O)O", "note": "[Example 61, (S)-2-{[3-Ethyl-5-(3-hydroxy-benzylcarbamoyl)-thiophene-2-carbonyl]-amino}-3-[(thiophene-2-carbonyl)-amino]-propionic acid]", "values": [{"measurement": "IC50", "setting": "[1]", "result": 16, "unit": "nM"}, {"measurement": "IC50", "setting": "[2]", "result": 31, "unit": "nM"}]}
{"smiles": "CCc1cc(C(=O)NCc2cccc3[nH]ncc23)sc1C(=O)N[C@@H](CNC(=O)c1cccs1)C(=O)O", "note": "[Example 62, (S)-2-({3-Ethyl-5-[(1H-indazol-4-ylmethyl)-carbamoyl]-thiophene-2-carbonyl}-amino)-3-[(thiophene-2-carbonyl)-amino]-propionic acid]", "values": [{"measurement": "IC50", "setting": "[1]", "result": 21, "unit": "nM"}, {"measurement": "IC50", "setting": "[2]", "result": 25, "unit": "nM"}]}
{"smiles": "O=C(NC[C@H](NC(=O)c1sc(C(=O)NCc2cccc(O)c2)cc1Br)C(=O)O)c1cccs1", "note": "[Example 63, (S)-2-{[3-Bromo-5-(3-hydroxy-benzylcarbamoyl)-thiophene-2-carbonyl]-amino}-3-[(thiophene-2-carbonyl)-amino]-propionic acid]", "values": [{"measurement": "IC50", "setting": "[1]", "result": 7, "unit": "nM"}, {"measurement": "IC50", "setting": "[2]", "result": 25, "unit": "nM"}]}
{"smiles": "Cc1cc(C(=O)NCc2ccc(F)c(O)c2)sc1C(=O)N[C@@H](CNC(=O)c1cccs1)C(=O)O", "note": "[Example 64, (S)-2-{[5-(4-Fluoro-3-hydroxy-benzylcarbamoyl)-3-methyl-thiophene-2-carbonyl]-amino}-3-[(thiophene-2-carbonyl)-amino]-propionic acid]", "values": [{"measurement": "IC50", "setting": "[1]", "result": 11, "unit": "nM"}, {"measurement": "IC50", "setting": "[2]", "result": "> 3000", "unit": "nM"}]}
